In US20230026789A1, “METHODS, SYSTEMS, AND TOOLS FOR LONGEVITY-RELATED APPLICATIONS” (SPRING DISCOVERY, INC., priority 2020, published 2023):
Where a name gives a salt, the structure may show the parent alone.

How the values were obtained:
[1] = test system: rVSV-infected PBMCs from older donors; format: cell-based, human
[2] = test system: T cells in rVSV-ΔG-mCherry-infected PBMCs; assay: On-age and off-age scores from T-cell image embeddings; format: cell-based, human; settings: T cells from older donors vs untreated controls
[3] = test system: T cells in rVSV-ΔG-mCherry-infected PBMCs; format: cell-based, human
[4] = test system: T cells in rVSV-ΔG-mCherry-infected PBMCs; format: cell-based, human; remark: listed apart in the source
[5] = test system: rVSV-ΔG-mCherry-infected PBMCs
[6] = test system: rVSV-ΔG-mCherry-infected PBMCs from older donors; format: cell-based, human
late stage COVID-19 = settings: cited from earlier work

Row | Compound | outcome of screen ranked by immune aging score and COVID-19 cytokine score [1] | off-age effects (change orthogonal to age distances) [2] | on-age score (distance from young controls) [2] | T-cell age score / aging model readout vs old untreated controls [3] | percentage of reticular T-cell mitochondria [4] | less T cells relative to vehicle-only controls [5] [%] | more dead and infected monocytes relative to vehicle-only controls [5] [%] | percentage of T cells [5] | percentage of dead cells and infected monocytes [5] | IL-1β level vs old untreated control PBMCs [6] | MCP1 level vs old untreated control PBMCs [6] | TNFα level vs old untreated control PBMCs [6] | patients who lowered their oxygen intake (late stage COVID-19; 15 of 20 late stage COVID-19 patients) [%] | patients with lung lesion opacity absorbed on CT scans (late stage COVID-19; 19 patients) [%] | fever after treatment (late stage COVID-19; within a few days after treatment)
1 | CC(C)[C@]12O[C@H]1[C@@H]1O[C@@]13[C@@]1(C)CCC4=C(COC4=O)[C@@H]1C[C@@H]1O[C@@]13C2=O [Triptonide] | identified as a therapy with potential for rejuvenating the aging immune system | significant | significantly shifted | from an older phenotype to a younger phenotype | dose-dependent decrease | 19 | 21 | decrease | significant increase | significant differences at one or more doses | significant, dose-dependent reduction | significant differences at one or more doses | – | – | –
2 | COC(=O)/C=C/C(=O)OC [dimethyl fumarate, reference compound] | – | – | did not improve | – | – | – | – | – | – | – | – | – | – | – | –
3 | Tocilizumab: IL-6 targeting therapy tested in late stage COVID-19 | – | – | – | – | – | – | – | – | – | – | – | – | 75.0 | 90.5 | returned to normal
